Data published in patent US20080027139A1, “Use of Alpha-Ketoglutarate and Related Compounds” (priority 2004, published 2008).
Where two headings read alike, the source gives them in different places.

Columns and labels:
[1] = system: sham-operated (SHO) and ovariectomized (OVX) Wistar female rats
Method: A study was conducted on Wistar female rats kept in standard weather conditions. […] Afterwards the female rates were randomly divided into 2 groups: ovariectomy were performed in all animals in group one (OVX) and placebo operation were done in the second group (SHO). Surgical procedures were performed under general anesthesia (rometare, ketamine and atropine in doses 2, 10 and 0.05 mg/kg of bodily weight respectively.
Studies were conducted on the animals from the two groups: females received experimental solutions from the seventh day following the operation (simulation of the first period of the lack of activity of the ovarian hormones) (Experiment I 1), females aged 7 months with a 5 month period in which there was no activity of hormonal ovaries (simulation of the period with a prolonged absence of the activity of ovarian hormones) (Experiment I 2) (Tab. 2).
In each of Experiments I1 and I2 40 animals was used for each experimental doses making a total of 240 animals.
Blood samples were collected immediately after slaughter, and the plasma removed by centrifugation was stored in a safe place for further biochemical analyses.
The entire cholesterol concentration was determined by means of commonly available analytical equipment using the spectrophotometric method.

[2] = system: volunteers with a relatively high level of cholesterol
Text: The experiment lasted for the total of 42 days. […] During the experiment no quantitative or qualitative restrictions regarding the diet were introduced. In the period from day 1 to day 28 the patients' lipid profile was checked every seven days in order to determine the concentration of cholesterol, fractions of LDL and HDL and triglycerides. […] Subsequent measurements of the lipid profile were taken on 42nd day of the experiment.

[3] = system: Wistar rats with diet-induced hypercholesterolaemia; conditions: day 120; AKG doses 0.1 and 1 from day 61 for 60 days; p<0.05
Text: Afterwards all animals received fodder enriched with 1% cholesterol (Sigma-Aldrich, Germany) and 10% lard in order to obtain hypercholesterolaemia. • 12 rats (6 females and 6 males) were killed on day 0 as an introduction control. • 12 rats (6 females and 6 males) were killed at day 30. • 12 rats (6 females and 6 males) were killed at day 60.
Remaining 48 rats were divided into 3 groups and the experiment continued for another 60 days on cholesteremic diet: • 1. Placebo group—24 rats (12 females and 12 males) • 2. 1 g AKG group—12 rats (6 females and 6 males) • 3. 0.1 g AKG group—12 rats (6 females and 6 males)
During the first 60 days of using cholesterol and lard enriched diet, the lipid profile was checked three times to determine the concentration of the entire cholesterol, the fraction of LDL and HDL and triglycerides. Measuring tests were performed a day before the said diet was commenced (day 0) and subsequently after 30 and 60 days of the application of the said diet. On the sixty first day of the experiment animals were divided into two groups: one receiving the placebo solution and the other receiving AKG solution (AKG in doses 0.1 and 1 (Table 9). All the time animals continued to receive experimental fodder. During the period when placebo and AKG solutions were administered, the lipid profile was checked on the 120th day of the experiment. […]

[4] = Volunteer 1, 1st week, chewable tablets of 1.28 g calcium alpha-ketoglutarate (1 g AKG), two tablets three times a day, day 1-28
[5] = Volunteer 1, 2nd week, calcium alpha-ketoglutarate tablets (1 g AKG), two tablets three times a day
[6] = Volunteer 1, 3rd week, calcium alpha-ketoglutarate tablets (1 g AKG), two tablets three times a day
[7] = Volunteer 1, 4th week, calcium alpha-ketoglutarate tablets (1 g AKG), two tablets three times a day
[8] = Volunteer 1, 6th week, after 2 weeks without AKG
[9] = Volunteer 2, 1st week, chewable tablets of 1.28 g calcium alpha-ketoglutarate (1 g AKG), two tablets three times a day, day 1-28
[10] = Volunteer 2, 2nd week, calcium alpha-ketoglutarate tablets (1 g AKG), two tablets three times a day
[11] = Volunteer 2, 3rd week, calcium alpha-ketoglutarate tablets (1 g AKG), two tablets three times a day
[12] = Volunteer 2, 4th week, calcium alpha-ketoglutarate tablets (1 g AKG), two tablets three times a day
[13] = Volunteer 2, 6th week, after 2 weeks without AKG
[14] = two volunteers, after a 14 day break in administering the preparation

**Q.** For `O=C(O)CCC(=O)C(=O)O` [AKG, alpha-ketoglutaric acid], which “effect on concentration of the entire cholesterol (in words)” value ([1]; OVX females, AKG dose 0.01 during 60 days, Experiment I-1, p=0.04, reaching the level of the control group) is on record?
**A.** statically significant decrease

**Q.** What about the “effect on concentration of the entire cholesterol (in words)” value ([1]; both doses 0.01 and 0.1, OVX and SHO groups, Experiment I-2 (prolonged lack of ovarian hormones)) of the same molecule?
**A.** statistically significant decrease

**Q.** And the “effect on concentration of the entire cholesterol (in words)” value ([1]; dose 1, females after ovariectomy relative to the control group, long-term absence of ovarian hormones (Experiment I-2))?
**A.** decreased

**Q.** What about the “effect on concentration of the entire cholesterol (in words)” value ([1]; dose 1, females after ovariectomy relative to the control group, short-term absence of ovarian hormones (Experiment I-1)) of the same molecule?
**A.** decreased

**Q.** What about the HDL level [2, 4] of the same molecule?
**A.** 45 mg/dL

**Q.** What about the Total cholesterol level [2, 4] of the same molecule?
**A.** 194 mg/dL

**Q.** What about the Triglycerides level [2, 4] of the same molecule?
**A.** 197 mg/dL

**Q.** What about the HDL level [2, 5] of the same molecule?
**A.** 41 mg/dL

**Q.** And the Total cholesterol level [2, 5]?
**A.** 196 mg/dL

**Q.** And the Triglycerides level [2, 5]?
**A.** 304 mg/dL

**Q.** What about the HDL level [2, 6] of the same molecule?
**A.** 42 mg/dL

**Q.** What about the Total cholesterol level [2, 6] of the same molecule?
**A.** 171 mg/dL

**Q.** What about the Triglycerides level [2, 6] of the same molecule?
**A.** 269 mg/dL

**Q.** And the HDL level [2, 7]?
**A.** 48 mg/dL

**Q.** What about the Total cholesterol level [2, 7] of the same molecule?
**A.** 157 mg/dL

**Q.** And the Triglycerides level [2, 7]?
**A.** 259 mg/dL

**Q.** And the HDL level [2, 8]?
**A.** 33 mg/dL

**Q.** What about the Total cholesterol level [2, 8] of the same molecule?
**A.** 197 mg/dL

**Q.** And the Triglycerides level [2, 8]?
**A.** 375 mg/dL

**Q.** What about the HDL level [2, 9] of the same molecule?
**A.** 35 mg/dL

**Q.** What about the Total cholesterol level [2, 9] of the same molecule?
**A.** 190 mg/dL

**Q.** And the Triglycerides level [2, 9]?
**A.** 122 mg/dL

**Q.** And the HDL level [2, 10]?
**A.** 44 mg/dL

**Q.** And the Total cholesterol level [2, 10]?
**A.** 213 mg/dL

**Q.** And the Triglycerides level [2, 10]?
**A.** 101 mg/dL

**Q.** What about the HDL level [2, 11] of the same molecule?
**A.** 40 mg/dL

**Q.** And the Total cholesterol level [2, 11]?
**A.** 199 mg/dL

**Q.** What about the Triglycerides level [2, 11] of the same molecule?
**A.** 199 mg/dL

**Q.** And the HDL level [2, 12]?
**A.** 42 mg/dL

**Q.** And the Total cholesterol level [2, 12]?
**A.** 189 mg/dL

**Q.** What about the Triglycerides level [2, 12] of the same molecule?
**A.** 187 mg/dL

**Q.** What about the HDL level [2, 13] of the same molecule?
**A.** 40 mg/dL

**Q.** And the Total cholesterol level [2, 13]?
**A.** 215 mg/dL

**Q.** And the Triglycerides level [2, 13]?
**A.** 220 mg/dL

**Q.** And the “effect on concentration of HDL (in words)” value ([2]; two volunteers, 28 days of tablets containing 1 g of AKG, 2 tablets 3 times a day)?
**A.** No significant effect

**Q.** And the “effect on concentration of the entire cholesterol (in words)” value ([2]; two volunteers, after 28 days of tablets containing 1 g of AKG, 2 tablets 3 times a day)?
**A.** decrease

**Q.** What about the “change of concentration of HDL fraction after stopping (in words)” value [2, 14] of the same molecule?
**A.** statistically significant decrease

**Q.** What about the “change of concentration of the entire cholesterol after stopping (in words)” value [2, 14] of the same molecule?
**A.** increased

**Q.** And the “change of concentration of triglycerides after stopping (in words)” value [2, 14]?
**A.** significant increase

**Q.** What about the “effect on concentration of triglycerides (in words)” value ([2]; two volunteers, from day 1 to day 28 of AKG tablets) of the same molecule?
**A.** increase

**Q.** What about the “effect on concentration of HDL (in words)” value [3] of the same molecule?
**A.** increase
